Data taken from publication PMC9856672, “SGC-CAMKK2-1: A Chemical Probe for CAMKK2” (Cells, 2023).

Experiments:
KIT(D816H) = molecular target: T1, KIT(D816H) (Homo sapiens, UniProt P10721, D816H); test: KINOMEscan 1 μM, KIT(D816H); type: binding; conditions: 1000 nM; Entrez KIT; read-out: Percent Control
T1 construct: purchased Eurofins DiscoverX KINOMEscan
Excerpt: (§1) Supplement cells-12-00287-s001.zip/File S2. KinomeScan data for the CAMKK2 probe and negative control.xlsx, sheet "SGC-CAMKK2-1" | column: Percent Control

TAOK3 = molecular target: T2, TAOK3 (Homo sapiens, UniProt Q9H2K8); test: KINOMEscan 1 μM, TAOK3; type: binding; conditions: 1000 nM; Entrez TAOK3; read-out: Percent Control
T2 construct: purchased Eurofins DiscoverX KINOMEscan
Excerpt: as §1

AKT1 = molecular target: T3, AKT1 (Homo sapiens, UniProt P31749); test: KINOMEscan 1 μM, AKT1; type: binding; conditions: 1000 nM; Entrez AKT1; read-out: Percent Control
T3 construct: purchased Eurofins DiscoverX KINOMEscan
Excerpt: as §1

EPHA6 = molecular target: T4, EPHA6 (Homo sapiens, UniProt Q9UF33); test: KINOMEscan 1 μM, EPHA6; type: binding; conditions: 1000 nM; Entrez EPHA6; read-out: Percent Control
T4 construct: purchased Eurofins DiscoverX KINOMEscan
Excerpt: as §1

ERBB2 = molecular target: T5, ERBB2 (Homo sapiens, UniProt P04626); test: KINOMEscan 1 μM, ERBB2; type: binding; conditions: 1000 nM; Entrez ERBB2; read-out: Percent Control
T5 construct: purchased Eurofins DiscoverX KINOMEscan
Excerpt: as §1

CDK2 = molecular target: T6, CDK2 (Homo sapiens, UniProt P24941); test: KINOMEscan 1 μM, CDK2; type: binding; conditions: 1000 nM; Entrez CDK2; read-out: Percent Control
T6 construct: purchased Eurofins DiscoverX KINOMEscan
Excerpt: as §1

CDC2L5 = molecular target: T7, CDC2L5 (Homo sapiens, UniProt Q14004); test: KINOMEscan 1 μM, CDC2L5; type: binding; conditions: 1000 nM; Entrez CDK13; read-out: Percent Control
T7 construct: purchased Eurofins DiscoverX KINOMEscan
Excerpt: as §1

ERK3 = molecular target: T8, ERK3 (Homo sapiens, UniProt Q16659); test: KINOMEscan 1 μM, ERK3; type: binding; conditions: 1000 nM; Entrez MAPK6; read-out: Percent Control
T8 construct: purchased Eurofins DiscoverX KINOMEscan
Excerpt: as §1

PIM3 = molecular target: T9, PIM3 (Homo sapiens, UniProt Q86V86); test: KINOMEscan 1 μM, PIM3; type: binding; conditions: 1000 nM; Entrez PIM3; read-out: Percent Control
T9 construct: purchased Eurofins DiscoverX KINOMEscan
Excerpt: as §1

PDPK1 = molecular target: T10, PDPK1 (Homo sapiens, UniProt O15530); test: KINOMEscan 1 μM, PDPK1; type: binding; conditions: 1000 nM; Entrez PDPK1; read-out: Percent Control
T10 construct: purchased Eurofins DiscoverX KINOMEscan
Excerpt: as §1

NEK6 = molecular target: T11, NEK6 (Homo sapiens, UniProt Q9HC98); test: KINOMEscan 1 μM, NEK6; type: binding; conditions: 1000 nM; Entrez NEK6; read-out: Percent Control
T11 construct: purchased Eurofins DiscoverX KINOMEscan
Excerpt: as §1

TESK1 = molecular target: T12, TESK1 (Homo sapiens, UniProt Q15569); test: DiscoverX KINOMEscan binding assay at 1 μM, TESK1; conditions: Compound Concentration 1000 nM, read-out: Percent Control
T12 construct: purchased Eurofins DiscoverX KINOMEscan
Excerpt: as §1

ICK = molecular target: T13, ICK (Homo sapiens, UniProt Q9UPZ9); test: KINOMEscan 1 μM, ICK; type: binding; conditions: 1000 nM; Entrez ICK; read-out: Percent Control
T13 construct: purchased Eurofins DiscoverX KINOMEscan
Excerpt: as §1

PIP5K2B = molecular target: T14, PIP5K2B (Homo sapiens, UniProt P78356); test: DiscoverX KINOMEscan binding assay at 1 μM, PIP5K2B; conditions: PIP5K2B (PIP4K2B); Compound Concentration 1000 nM; read-out: Percent Control
T14 construct: purchased Eurofins DiscoverX KINOMEscan
Excerpt: as §1

EGFR(L858R) = molecular target: T15, EGFR(L858R) (Homo sapiens, UniProt P00533, L858R); test: KINOMEscan binding assay at 1 μM, EGFR(L858R); conditions: Compound Concentration 1000 nM; read-out: Percent Control
T15 construct: purchased Eurofins DiscoverX KINOMEscan
Excerpt: (§2) Supplement cells-12-00287-s001.zip/File S2. KinomeScan data for the CAMKK2 probe and negative control.xlsx, sheet "SGC-CAMKK2-1N" | column: Percent Control

ADCK4 = molecular target: T16, ADCK4 (Homo sapiens, UniProt Q96D53); test: KINOMEscan at 1 μM, ADCK4; type: binding; conditions: 1000 nM, read-out: Percent Control
T16 construct: purchased Eurofins DiscoverX KINOMEscan
Excerpt: as §2

STK39 = molecular target: T17, STK39 (Homo sapiens, UniProt Q9UEW8); test: KINOMEscan at 1 μM, STK39; type: binding; conditions: 1000 nM, read-out: Percent Control
T17 construct: purchased Eurofins DiscoverX KINOMEscan
Excerpt: as §2

PIKFYVE = molecular target: T18, PIKFYVE (Homo sapiens, UniProt Q9Y2I7); test: KINOMEscan at 1 μM, PIKFYVE; type: binding; conditions: 1000 nM, read-out: Percent Control
T18 construct: purchased Eurofins DiscoverX KINOMEscan
Excerpt: as §2

AMPK-alpha2 = molecular target: T19, AMPK-alpha2 (Homo sapiens, UniProt P54646); test: KINOMEscan at 1 μM, AMPK-alpha2; type: binding; conditions: 1000 nM, read-out: Percent Control
T19 construct: purchased Eurofins DiscoverX KINOMEscan
Excerpt: as §2

EGFR(S752-I759del) = molecular target: T20, EGFR(S752-I759del) (Homo sapiens, UniProt P00533, DEL752-759); test: KINOMEscan binding assay at 1 μM, EGFR(S752-I759del); conditions: Compound Concentration 1000 nM; read-out: Percent Control
T20 construct: purchased Eurofins DiscoverX KINOMEscan
Excerpt: as §2

BMX = molecular target: T21, BMX (Homo sapiens, UniProt P51813); test: KINOMEscan at 1 μM, BMX; type: binding; conditions: 1000 nM, read-out: Percent Control
T21 construct: purchased Eurofins DiscoverX KINOMEscan
Excerpt: as §2

TNIK = molecular target: T22, TNIK (Homo sapiens, UniProt Q9UKE5); test: KINOMEscan at 1 μM, TNIK; type: binding; conditions: 1000 nM, read-out: Percent Control
T22 construct: purchased Eurofins DiscoverX KINOMEscan
Excerpt: as §2

CSNK1A1 = molecular target: T23, CSNK1A1 (Homo sapiens, UniProt P48729); test: KINOMEscan at 1 μM, CSNK1A1; type: binding; conditions: 1000 nM, read-out: Percent Control
T23 construct: purchased Eurofins DiscoverX KINOMEscan
Excerpt: as §2

TRPM6 = molecular target: T24, TRPM6 (Homo sapiens, UniProt Q9BX84); test: KINOMEscan at 1 μM, TRPM6; type: binding; conditions: 1000 nM, read-out: Percent Control
T24 construct: purchased Eurofins DiscoverX KINOMEscan
Excerpt: as §2

ULK3 = molecular target: T25, ULK3 (Homo sapiens, UniProt Q6PHR2); test: KINOMEscan at 1 μM, ULK3; type: binding; conditions: 1000 nM, read-out: Percent Control
T25 construct: purchased Eurofins DiscoverX KINOMEscan
Excerpt: as §2

PIK3CD = molecular target: T26, PIK3CD (Homo sapiens, UniProt O00329); test: KINOMEscan binding assay at 1 μM, PIK3CD; conditions: Compound Concentration 1000 nM; read-out: Percent Control
T26 construct: purchased Eurofins DiscoverX KINOMEscan
Excerpt: as §2

FGFR1 = molecular target: T27, FGFR1 (Homo sapiens, UniProt P11362); test: KINOMEscan binding assay at 1 μM, FGFR1; conditions: Compound Concentration 1000 nM; read-out: Percent Control
T27 construct: purchased Eurofins DiscoverX KINOMEscan
Excerpt: as §2

EGFR(L858R,T790M) = molecular target: T28, EGFR(L858R,T790M) (Homo sapiens, UniProt P00533, L858R/T790M); test: KINOMEscan at 1 μM, EGFR(L858R,T790M); type: binding; conditions: 1000 nM, read-out: Percent Control
T28 construct: purchased Eurofins DiscoverX KINOMEscan
Excerpt: as §2

PRP4 = molecular target: T29, PRP4 (Homo sapiens, UniProt Q13523); test: KINOMEscan binding assay at 1 μM, PRP4; conditions: Compound Concentration 1000 nM; read-out: Percent Control
T29 construct: purchased Eurofins DiscoverX KINOMEscan
Excerpt: as §2

JNK1 = molecular target: T30, JNK1 (Homo sapiens, UniProt P45983); test: KINOMEscan at 1 μM, JNK1; type: binding; conditions: 1000 nM, read-out: Percent Control
T30 construct: purchased Eurofins DiscoverX KINOMEscan
Excerpt: as §2

MAP3K2 = molecular target: T31, MAP3K2 (Homo sapiens, UniProt Q9Y2U5); test: KINOMEscan at 1 μM, MAP3K2; type: binding; conditions: 1000 nM, read-out: Percent Control
T31 construct: purchased Eurofins DiscoverX KINOMEscan
Excerpt: as §2

MAP3K3 = molecular target: T32, MAP3K3 (Homo sapiens, UniProt Q99759); test: KINOMEscan at 1 μM, MAP3K3; type: binding; conditions: 1000 nM, read-out: Percent Control
T32 construct: purchased Eurofins DiscoverX KINOMEscan
Excerpt: as §2

YSK1 = molecular target: T33, YSK1 (Homo sapiens, UniProt O00506); test: KINOMEscan at 1 μM, YSK1; type: binding; conditions: 1000 nM, read-out: Percent Control
T33 construct: purchased Eurofins DiscoverX KINOMEscan
Excerpt: as §2

KIT-autoinhibited = molecular target: T34, KIT-autoinhibited (Homo sapiens, UniProt P10721); test: KINOMEscan at 1 μM, KIT-autoinhibited; type: binding; conditions: 1000 nM, read-out: Percent Control
T34 construct: purchased Eurofins DiscoverX KINOMEscan
Excerpt: as §2

MINK = molecular target: T35, MINK (Homo sapiens, UniProt Q8N4C8); test: KINOMEscan at 1 μM, MINK; type: binding; conditions: 1000 nM, read-out: Percent Control
T35 construct: purchased Eurofins DiscoverX KINOMEscan
Excerpt: as §2

T3 sequence (P31749 whole entry): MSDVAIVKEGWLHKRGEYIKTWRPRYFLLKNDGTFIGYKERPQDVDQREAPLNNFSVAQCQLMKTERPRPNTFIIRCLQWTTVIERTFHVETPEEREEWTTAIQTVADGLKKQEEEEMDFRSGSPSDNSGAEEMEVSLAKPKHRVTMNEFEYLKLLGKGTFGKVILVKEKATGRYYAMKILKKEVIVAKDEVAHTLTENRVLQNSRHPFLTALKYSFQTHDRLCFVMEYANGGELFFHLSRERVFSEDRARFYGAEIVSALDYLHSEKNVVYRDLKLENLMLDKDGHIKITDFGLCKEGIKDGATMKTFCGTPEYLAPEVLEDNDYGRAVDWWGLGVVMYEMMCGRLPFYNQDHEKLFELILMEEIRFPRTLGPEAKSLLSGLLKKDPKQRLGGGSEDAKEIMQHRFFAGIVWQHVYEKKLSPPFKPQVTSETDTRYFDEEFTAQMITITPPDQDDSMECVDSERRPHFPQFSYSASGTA
T35 sequence (Q8N4C8 whole entry): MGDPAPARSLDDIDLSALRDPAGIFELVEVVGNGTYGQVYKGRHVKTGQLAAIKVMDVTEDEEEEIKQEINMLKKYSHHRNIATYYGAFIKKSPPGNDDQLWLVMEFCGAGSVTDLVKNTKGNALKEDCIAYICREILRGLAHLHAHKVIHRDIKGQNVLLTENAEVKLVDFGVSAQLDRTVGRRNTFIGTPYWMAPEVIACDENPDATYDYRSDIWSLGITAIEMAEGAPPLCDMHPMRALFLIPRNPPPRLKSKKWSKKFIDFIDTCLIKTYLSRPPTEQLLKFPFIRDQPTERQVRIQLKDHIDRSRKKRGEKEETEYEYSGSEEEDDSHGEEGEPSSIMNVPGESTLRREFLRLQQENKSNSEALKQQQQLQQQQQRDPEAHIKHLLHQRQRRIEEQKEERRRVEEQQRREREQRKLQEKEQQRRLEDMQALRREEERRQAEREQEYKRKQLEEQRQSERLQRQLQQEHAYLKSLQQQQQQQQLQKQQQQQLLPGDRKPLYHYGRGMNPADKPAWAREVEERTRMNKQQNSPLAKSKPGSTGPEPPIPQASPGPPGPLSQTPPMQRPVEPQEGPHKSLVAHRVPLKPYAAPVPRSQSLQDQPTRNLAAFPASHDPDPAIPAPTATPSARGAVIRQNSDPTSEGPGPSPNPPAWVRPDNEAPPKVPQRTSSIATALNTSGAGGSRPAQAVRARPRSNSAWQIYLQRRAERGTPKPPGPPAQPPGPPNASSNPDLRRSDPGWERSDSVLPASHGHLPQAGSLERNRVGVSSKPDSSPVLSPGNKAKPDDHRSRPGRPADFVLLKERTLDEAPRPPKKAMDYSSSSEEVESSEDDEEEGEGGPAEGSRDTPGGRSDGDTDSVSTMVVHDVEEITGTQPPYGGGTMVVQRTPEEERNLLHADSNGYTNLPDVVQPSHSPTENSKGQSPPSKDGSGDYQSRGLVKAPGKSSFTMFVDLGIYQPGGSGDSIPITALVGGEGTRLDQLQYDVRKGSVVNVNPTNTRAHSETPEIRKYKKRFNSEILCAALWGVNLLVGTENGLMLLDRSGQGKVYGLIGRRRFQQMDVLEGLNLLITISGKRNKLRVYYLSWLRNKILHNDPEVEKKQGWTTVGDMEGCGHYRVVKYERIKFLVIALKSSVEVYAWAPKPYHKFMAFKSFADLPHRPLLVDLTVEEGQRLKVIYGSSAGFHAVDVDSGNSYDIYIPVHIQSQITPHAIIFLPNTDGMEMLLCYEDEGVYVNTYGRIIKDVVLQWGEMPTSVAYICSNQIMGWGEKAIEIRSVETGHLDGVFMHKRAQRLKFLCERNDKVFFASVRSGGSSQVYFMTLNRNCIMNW
T10 sequence (O15530 whole entry): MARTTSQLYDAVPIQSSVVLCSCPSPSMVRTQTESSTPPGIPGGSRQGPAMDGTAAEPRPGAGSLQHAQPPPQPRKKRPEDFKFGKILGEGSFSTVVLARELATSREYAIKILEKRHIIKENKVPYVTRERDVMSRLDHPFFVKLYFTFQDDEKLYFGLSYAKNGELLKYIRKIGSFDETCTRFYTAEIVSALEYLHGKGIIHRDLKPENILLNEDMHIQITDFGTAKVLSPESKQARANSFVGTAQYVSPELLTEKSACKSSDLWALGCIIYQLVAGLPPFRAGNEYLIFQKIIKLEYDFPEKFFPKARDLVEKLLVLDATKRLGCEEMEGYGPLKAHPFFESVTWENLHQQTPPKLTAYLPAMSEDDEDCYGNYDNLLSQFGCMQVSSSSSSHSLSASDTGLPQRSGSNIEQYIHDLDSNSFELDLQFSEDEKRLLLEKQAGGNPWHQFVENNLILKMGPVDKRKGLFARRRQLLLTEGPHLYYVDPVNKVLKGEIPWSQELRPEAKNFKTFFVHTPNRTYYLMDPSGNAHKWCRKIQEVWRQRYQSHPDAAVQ
T13 sequence (Q9UPZ9 whole entry): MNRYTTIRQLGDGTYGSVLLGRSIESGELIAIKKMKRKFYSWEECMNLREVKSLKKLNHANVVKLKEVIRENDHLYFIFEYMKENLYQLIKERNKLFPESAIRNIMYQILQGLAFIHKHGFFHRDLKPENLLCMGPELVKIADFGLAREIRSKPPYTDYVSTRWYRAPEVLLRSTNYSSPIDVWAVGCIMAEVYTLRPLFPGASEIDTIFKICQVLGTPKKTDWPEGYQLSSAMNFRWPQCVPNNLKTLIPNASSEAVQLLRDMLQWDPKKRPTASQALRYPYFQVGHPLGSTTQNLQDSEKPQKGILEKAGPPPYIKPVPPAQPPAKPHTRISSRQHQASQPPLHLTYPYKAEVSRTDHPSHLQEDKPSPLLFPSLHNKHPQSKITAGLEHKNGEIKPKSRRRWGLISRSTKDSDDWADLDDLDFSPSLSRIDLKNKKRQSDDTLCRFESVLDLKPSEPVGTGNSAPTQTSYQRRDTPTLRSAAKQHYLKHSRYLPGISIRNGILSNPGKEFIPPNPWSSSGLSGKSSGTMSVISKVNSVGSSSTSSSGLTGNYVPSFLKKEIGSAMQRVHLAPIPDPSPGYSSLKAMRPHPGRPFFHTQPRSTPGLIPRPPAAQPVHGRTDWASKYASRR
T20 sequence (P00533 with tags, fused parts or gaps DEL752-759 limits assumed): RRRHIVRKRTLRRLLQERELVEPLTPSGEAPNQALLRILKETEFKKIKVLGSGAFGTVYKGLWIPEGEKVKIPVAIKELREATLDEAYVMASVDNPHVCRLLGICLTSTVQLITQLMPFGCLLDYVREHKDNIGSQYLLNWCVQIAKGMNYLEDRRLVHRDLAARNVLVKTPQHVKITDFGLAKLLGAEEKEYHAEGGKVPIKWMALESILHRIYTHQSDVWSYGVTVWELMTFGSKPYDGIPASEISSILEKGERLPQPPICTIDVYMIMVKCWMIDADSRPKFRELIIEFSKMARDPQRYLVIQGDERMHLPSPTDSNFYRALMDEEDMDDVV
T26 sequence (O00329 whole entry): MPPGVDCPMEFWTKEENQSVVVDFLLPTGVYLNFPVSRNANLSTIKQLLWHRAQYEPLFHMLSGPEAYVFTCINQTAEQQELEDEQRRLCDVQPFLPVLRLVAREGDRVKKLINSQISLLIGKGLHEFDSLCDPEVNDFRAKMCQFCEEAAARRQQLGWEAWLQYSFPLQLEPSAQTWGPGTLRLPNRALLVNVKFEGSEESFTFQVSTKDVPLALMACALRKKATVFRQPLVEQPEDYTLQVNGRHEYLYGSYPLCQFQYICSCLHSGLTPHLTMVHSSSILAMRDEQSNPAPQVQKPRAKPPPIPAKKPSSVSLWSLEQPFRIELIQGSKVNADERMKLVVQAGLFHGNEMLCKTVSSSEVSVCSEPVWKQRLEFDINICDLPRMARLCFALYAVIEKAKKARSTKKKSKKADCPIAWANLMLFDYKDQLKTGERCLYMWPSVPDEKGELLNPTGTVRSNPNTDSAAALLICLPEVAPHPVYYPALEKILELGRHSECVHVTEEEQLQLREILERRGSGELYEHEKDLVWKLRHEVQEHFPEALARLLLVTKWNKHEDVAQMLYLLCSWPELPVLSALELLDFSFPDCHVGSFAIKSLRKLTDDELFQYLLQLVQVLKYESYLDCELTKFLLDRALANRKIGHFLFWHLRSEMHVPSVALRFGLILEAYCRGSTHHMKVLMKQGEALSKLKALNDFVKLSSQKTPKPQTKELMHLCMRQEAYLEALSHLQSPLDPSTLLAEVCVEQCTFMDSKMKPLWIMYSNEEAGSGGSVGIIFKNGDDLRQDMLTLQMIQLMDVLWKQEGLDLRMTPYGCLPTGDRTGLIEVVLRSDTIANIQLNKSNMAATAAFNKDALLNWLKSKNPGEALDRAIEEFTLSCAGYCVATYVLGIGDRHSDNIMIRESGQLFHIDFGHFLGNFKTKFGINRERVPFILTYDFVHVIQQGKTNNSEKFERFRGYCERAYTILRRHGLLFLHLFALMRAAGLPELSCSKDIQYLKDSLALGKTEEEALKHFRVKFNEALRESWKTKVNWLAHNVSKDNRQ
T19 sequence (P54646 whole entry): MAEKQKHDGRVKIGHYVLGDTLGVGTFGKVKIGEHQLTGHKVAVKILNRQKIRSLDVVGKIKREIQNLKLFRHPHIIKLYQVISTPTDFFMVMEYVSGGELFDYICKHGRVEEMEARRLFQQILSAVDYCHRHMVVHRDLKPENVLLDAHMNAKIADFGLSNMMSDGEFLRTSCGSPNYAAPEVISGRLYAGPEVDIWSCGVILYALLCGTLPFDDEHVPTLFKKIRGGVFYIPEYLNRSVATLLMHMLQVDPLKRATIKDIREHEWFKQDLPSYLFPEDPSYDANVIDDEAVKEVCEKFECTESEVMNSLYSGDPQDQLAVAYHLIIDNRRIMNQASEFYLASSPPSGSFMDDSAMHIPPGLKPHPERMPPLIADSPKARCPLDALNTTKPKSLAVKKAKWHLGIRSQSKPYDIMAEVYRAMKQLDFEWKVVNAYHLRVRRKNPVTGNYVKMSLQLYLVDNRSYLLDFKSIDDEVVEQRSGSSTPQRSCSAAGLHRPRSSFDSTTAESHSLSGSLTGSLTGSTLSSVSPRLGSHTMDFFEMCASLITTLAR

For Cc1cccc(-c2cnc3occ(-c4ccc(C(=O)O)c(C5CCCC5)c4)c3c2)c1 [SGC-CAMKK2-1 (YL-36)], the remaining binding at 1 µM (KIT(D816H)) was 87%, the remaining binding at 1 µM (TAOK3) was 97% and the remaining binding at 1 µM (AKT1) was 100%. For the same compound, the remaining binding at 1 µM (EPHA6) was 100%, the remaining binding at 1 µM (ERBB2) was 100% and the remaining binding at 1 µM (CDK2) was 100%. It also gave a remaining binding at 1 µM (CDC2L5) of 100%, a remaining binding at 1 µM (ERK3) of 81% and a remaining binding at 1 µM (PIM3) of 77%. The remaining binding at 1 µM (PDPK1) was 95%, the remaining binding at 1 µM (NEK6) was 100% and the remaining binding at 1 µM (TESK1) was 100%. The remaining binding at 1 µM (ICK) was 100% and the remaining binding at 1 µM (PIP5K2B) was 100%.
For O=C(O)c1ccc(-c2coc3ncc(-c4ccccc4)cc23)cc1Cl [SGC-CAMKK2-1N (UNC-YL-83)], the remaining binding at 1 µM (EGFR(L858R)) was 100%, the remaining binding at 1 µM (ADCK4) was 100% and the remaining binding at 1 µM (STK39) was 77%. It also gave a remaining binding at 1 µM (PIKFYVE) of 84%, a remaining binding at 1 µM (AMPK-alpha2) of 100% and a remaining binding at 1 µM (EGFR(S752-I759del)) of 100%. For the same compound, the remaining binding at 1 µM (BMX) was 77%, the remaining binding at 1 µM (TNIK) was 73% and the remaining binding at 1 µM (CSNK1A1) was 44%. It also gave a remaining binding at 1 µM (TRPM6) of 53%, a remaining binding at 1 µM (ULK3) of 82% and a remaining binding at 1 µM (PIK3CD) of 100%. It also gave a remaining binding at 1 µM (FGFR1) of 100%, a remaining binding at 1 µM (EGFR(L858R,T790M)) of 83% and a remaining binding at 1 µM (PRP4) of 100%. For the same compound, the remaining binding at 1 µM (JNK1) was 81%, the remaining binding at 1 µM (MAP3K2) was 83% and the remaining binding at 1 µM (MAP3K3) was 47%. The remaining binding at 1 µM (YSK1) was 66%, the remaining binding at 1 µM (KIT-autoinhibited) was 92% and the remaining binding at 1 µM (MINK) was 95%.
